Values quoted from earlier work, collected in US5374661A (Sano Corporation, priority 1993, dated 1994).

Key:
[1] = oral

## O=C(O)Cc1ccccc1Nc1c(Cl)cccc1Cl [Diclofenac]
[1]
  less frequent side effects: abdominal distension, flatulence and peptic ulcers with bleeding
  most common gastrointestinal side effects: nausea, vomiting, abdominal pain, dyspepsia and diarrhea
Lipoxygenase pathway
  inhibition of lipoxygenase pathway (in words): may inhibit the lipoxygenase pathway with subsequent reduction in leukotriene production
cyclooxygenase
  inhibition of cyclooxygenase pathway (in words): inhibits the cyclooxygenase pathway with subsequent reduction in prostaglandin and thromboxane production
